Experimental findings from patent US11999746B2, “Compounds” (GlaxoSmithKline Intellectual Property Development Limited, priority 2014, dated 2024) are described below.

Experiment [1] deals with experimental autoimmune encephalomyelitis (EAE) rats. As to the kind of experiment: Rat experimental autoimmune encephalomyelitis (EAE) model, preventive treatment. The experiment is classed as in vivo. The settings on record: compound administered from day 0 until day 22. How it is done: A further study was carried out to study the impact of Lp-PLA2 inhibitors on modulating M1/M2 imbalance. In this study, rats were induced to develop experimental autoimmune encephalomyelitis (EAE) by immunization with myelin basic protein (MBP) antigen and treated with a known Lp-PLA2 inhibitor: 5-((9-Methoxy-4-oxo-6,7-dihydro-4H-pyrimido[6,1-a]isoquinolin-2-yl)oxy)-2-(3-(trifluoromethyl)phenoxy)benzonitrile (See PCT application no. PCT/CN2011/001597). In this preventive treatment model, the compound was administered at day 0 (day of immunization) and continued to administer until day 22. The study lasted for 25 days. Rats were subsequently monitored for symptoms of EAE. Rats were immunized with MBP to develop EAE and symptoms were monitored daily. Plasma Lp-PLA2 activity, OxLDL, and LysoPC concentration were determined at different time points through the course of EAE.

Experiment [2] has as its system proinflammatory (M1) and anti-inflammatory (M2) markers in splenic and CNS infiltrating macrophages. In words: Ex vivo analysis of M1 and M2 markers in macrophages of EAE rats by realtime PCR. Set-up: species or system rat. Particulars: macrophages of compound treated EAE rats, splenic macrophages harvested at day 13 post MBP-immunization. How it is done: Ex vivo analysis of proinflammatory (M1) and anti-inflammatory (M2) markers in control and compound treated EAE rats. Splenic macrophages were harvested at day 13 post MBP-immunization and assayed for expression of a variety of markers by realtime PCR. CNS infiltrating cells were harvested and macrophages were analyzed for expression of M1 and M2 markers by realtime PCR.

The target of experiment [3] is T1, recombinant human Lp-PLA2 (Homo sapiens, UniProt Q13093).
T1 sequence (Q13093 22-441): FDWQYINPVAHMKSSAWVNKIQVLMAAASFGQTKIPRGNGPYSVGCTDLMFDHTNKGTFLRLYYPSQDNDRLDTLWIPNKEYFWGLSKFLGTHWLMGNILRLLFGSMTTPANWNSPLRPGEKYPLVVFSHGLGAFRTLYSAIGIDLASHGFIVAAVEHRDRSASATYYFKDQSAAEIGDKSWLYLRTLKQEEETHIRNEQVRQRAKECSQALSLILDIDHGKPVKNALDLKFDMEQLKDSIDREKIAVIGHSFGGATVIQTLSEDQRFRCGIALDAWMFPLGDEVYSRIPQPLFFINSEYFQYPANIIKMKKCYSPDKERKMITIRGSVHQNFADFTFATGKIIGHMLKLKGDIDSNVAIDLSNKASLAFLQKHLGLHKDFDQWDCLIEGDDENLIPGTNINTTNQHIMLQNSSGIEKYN
As to the kind of experiment: (1b) hrThioPAF assay, recombinant human Lp-PLA2. The experiment is classed as biochemical. The settings on record: Examples 266-412 were tested here, one experiment or average of multiple experiments, read-out: rhLp-PLA2 (pIC50) (converted). A digest of the protocol:
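Fluorogenic assay: 20 pM rhLp-PLA2 in 50 mM HEPES pH 7.4, 150 mM NaCl, 1 mM CHAPS with 1:3 serially diluted compounds; substrate mix of 40 μM 2-thio-PAF, 40 μM CPM, 400 μM NEM (pre-addition levels). 20 min at 25 °C in the dark; fluorescence ex 380/em 485 nm, pIC50 by curve fitting.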

Another experiment deals with T2, Lp-PLA2 in human plasma (Homo sapiens, UniProt Q13093).
T2 construct: from tissue; host or cells: pooled human plasma
T2 sequence (Q13093 22-441): T1 sequence (Q13093 22-441)
As to the kind of experiment: (3b) Lp-PLA2 human plasma alternative Thio-PAF assay. Particulars: (3b) alternative Thio-PAF assay, pooled human plasma; Examples of 266-412 were tested here; read-out: pIC50 in the Lp-PLA2 human plasma assay (converted). The experiment is classed as biochemical. The procedure, abridged:
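Pooled human plasma was preincubated with compound for 15 min at RT. Substrate solution (2 mM 2-thio-PAF, 52 μM CPM, 2.5 mM NEM in 50 mM HEPES pH 7.4, 150 mM NaCl, 1 mM CHAPS; pre-addition concentrations) was added, and the reaction was quenched with 5% TFA after 3 min. Fluorescence was read at ex 380/em 485 nm and fitted to give pIC50.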

For the molecule `COc1ccc2c(c1)CCn1c-2cc(Oc2ccc(Oc3cccc(C(F)(F)F)c3)c(C#N)c2)nc1=O` [5-((9-Methoxy-4-oxo-6,7-dihydro-4H-pyrimido[6,1-a]isoquinolin-2-yl)oxy)-2-(3-(trifluoromethyl)phenoxy)benzonitrile], in experiment [1] (rat EAE plasma), the “plasma Lp-PLA2 activity” value is given as “decreased” and the “plasma LysoPC levels” value was “decreased”. The “clinical disease (symptoms of EAE)” value in experiment [1] (rats immunized with MBP, study lasted 25 days) is given as “reduction in clinical disease”. Further, in experiment [2], the “M1 (proinflammatory) markers” value is reported as “decrease” and the “M2 (anti-inflammatory) markers” value was “increase”.
As to `Cc1ccc(Oc2c(F)cc(COc3cc4n(c(=O)n3)CC3(COC3)N4)cc2F)cn1` [Example E394, 7-((3,5-Difluoro-4-((6-methylpyridin-3-yl)oxy)benzyl)oxy)-1H-spiro[imidazo[1,2-c]pyrimidine-2,3′-oxetan]-5(3H)-one], the IC50 was not above 10 µM in experiment [3] and not above 0.1 µM on Lp-PLA2 in human plasma.
Consider `CC(C)(C)C(=O)N1CCN2c3cc(OCc4ccc(F)c(C#N)c4)nc(=O)n3CC2C1` (stereo not drawn) [Example E294, 2-Fluoro-5-(((9-oxo-2-pivaloyl-2,3,4,9,11,11a-hexahydro-1H-pyrazino[1′,2′:3,4]imidazo[1,2-c]pyrimidin-7-yl)oxy)methyl)benzonitrile 2,2,2-trifluoroacetate], for which the IC50 in experiment [3] is not above 10 µM; on Lp-PLA2 in human plasma it was not above 0.1 µM.
For `CN1CC2Cn3c(cc(OCc4ccc(F)c(C#N)c4)nc3=O)N2CC1=O` (stereo not drawn) [Example E357, 2-Fluoro-5-(((2-methyl-3,9-dioxo-2,3,4,9,11,11a-hexahydro-1H-pyrazino[1,2′:3,4]imidazo[1,2-c]pyrimidin-7-yl)oxy)methyl)benzonitrile] the same measures were not above 10 µM and not above 0.1 µM.
As for `[2H]C1([2H])C2CN(S(C)(=O)=O)CCN2c2cc(OCc3ccc(F)c(C#N)c3)nc(=O)n21` (stereo not drawn) [Example E287, 5-(((11,11-Dideutero-2-(methylsulfonyl)-9-oxo-2,3,4,9,11,11a-hexahydro-1H-pyrazino[1′,2′:3,4]imidazo[1,2-c]pyrimidin-7-yl)oxy)methyl)-2-fluorobenzonitrile], the values for the IC50 (in experiment [3]; on Lp-PLA2 in human plasma) were not above 10 µM and not above 0.1 µM, respectively.
For `N#Cc1cc(COc2cc3n(c(=O)n2)CC2CNC(=O)CN32)ccc1F` (stereo not drawn) [Example E349, 5-(((3,9-Dioxo-2,3,4,9,11,11a-hexahydro-1H-pyrazino[1′,2′:3,4]imidazo[1,2-c]pyrimidin-7-yl)oxy)methyl)-2-fluorobenzonitrile] the same measures were not above 10 µM and not above 0.1 µM.
